Article PMC8469531, “Design, Synthesis, and Biochemical Evaluation of New Triazole Derivatives as Aurora-A Kinase Inhibitors” (Molecules, 2021)
Read-outs that look alike come from different tables or passages of the source.

Columns and labels:
Aurora-A kinase = target: T1, Aurora-A kinase (Homo sapiens, UniProt O14965); assay: ChEF-based assay (PhosphoSens) of Aurora-A kinase activity
T1 sequence (O14965 1-403): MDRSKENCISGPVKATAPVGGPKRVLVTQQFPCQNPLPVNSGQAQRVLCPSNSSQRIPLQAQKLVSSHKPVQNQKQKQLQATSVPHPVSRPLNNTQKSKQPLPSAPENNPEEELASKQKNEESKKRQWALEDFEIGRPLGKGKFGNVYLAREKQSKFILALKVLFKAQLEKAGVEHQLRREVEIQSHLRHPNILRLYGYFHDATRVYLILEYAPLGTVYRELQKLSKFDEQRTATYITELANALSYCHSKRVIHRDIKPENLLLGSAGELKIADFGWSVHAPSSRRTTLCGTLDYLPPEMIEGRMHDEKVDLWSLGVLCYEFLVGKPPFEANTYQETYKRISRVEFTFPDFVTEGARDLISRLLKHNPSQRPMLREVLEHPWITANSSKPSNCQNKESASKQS
Protocol: The reaction wells were mixed, and the relative fluorescence unit (RFU) data were collected every 3 min for 30 min at 30 °C. The used λEx/Em of the chelated Mg^2+ with the Sox was 360/485 nm.

DLBC lymphoma cell lines = test system: DLBC lymphoma cell lines; parameters: method as in PMID 31850205; details: cited from earlier work
[1] = test system: various cancerous cell lines; parameters: method as in PMID 16204078; details: cited from earlier work
[2] = test system: A375 melanoma human tumor xenograft; parameters: method as in PMID 16204078; details: A375 melanoma human tumor xenograft model; cited from earlier work

In the case of `Nc1nc(Nc2ccc(S(N)(=O)=O)cc2)nn1S(=O)(=O)c1ccccc1` [Compound 1a, 4-((5-amino-1-(phenylsulfonyl)-1H-1,2,4-triazol-3-yl)amino)benzenesulfonamide], the IC50 (Aurora-A kinase) is reported as 130 ± 60 nM and the melting point is reported as 229 to 231 °C.

“4-((5-amino-1-((3,5-bis(trifluoromethyl)phenyl)sulfonyl)-1H-1,2,4-triazol-3-yl)amino)benzenesulfonamide [Compound 1d]” showed an IC50 (Aurora-A kinase; Mean ± SEM of 3 independent experiments, 1.25 nM Aurora-A kinase, 15 µM ATP, 10 µM CSox-peptide substrate) of 1780 ± 340 nM.

Compound `Cc1ccc(S(=O)(=O)n2nc(Nc3ccc(S(N)(=O)=O)cc3)nc2N)cc1` [Compound 1c, 4-((5-amino-1-tosyl-1H-1,2,4-triazol-3-yl)amino)benzenesulfonamide] has an IC50 (Aurora-A kinase) of 230 ± 20 nM.

In the case of `Nc1nc(Nc2ccc(S(N)(=O)=O)cc2)nn1C(=O)c1c(F)cccc1F` [JNJ-7706621], the “reversal of resistance to CD37-targeted radioimmunotherapy” value (DLBC lymphoma cell lines) is given as “promoted the reversal of resistance”, the “growth inhibition of normal cells relative to cancerous cell lines” value ([1]; normal cell growth) is given as “several folds less potent at inhibiting normal cell growth” and the antiproliferative activity ([1]; various cancerous cell lines) is given as “potent antiproliferative activity”. For the same compound, the tumor size [2] was “significantly reduced the tumor size”.

In the case of `Nc1nc(Nc2ccc(S(N)(=O)=O)cc2)nn1S(=O)(=O)c1c(F)cccc1F` [Compound 1b, 4-((5-amino-1-((2,6-difluorophenyl)sulfonyl)-1H-1,2,4-triazol-3-yl)amino)benzenesulfonamide], the IC50 (Aurora-A kinase) is reported as 210 ± 20 nM.
